The source of these data is article PMC12670317, “Targeted NAT10 Degradation by PROTAC NP1192 Suppresses Hypoxia-Adaptive Glycolysis and Reinvigorates CD8^+ Effector T‑Cell Function for Synergistic Cancer Immunotherapy” (ACS Central Science, 2025).

This data set relates to U14 cells subcutaneous xenograft. Put plainly: U14 subcutaneous xenograft model in C57BL/6J mice. The format is in vivo. As for the experimental part: U14 cells (1 × 10^7 cells per mouse, approximately 100–150 μL of cell suspension) were implanted subcutaneously into the lateral lower dorsal surface of each mouse. The tumors were allowed to grow for 7 days, and the mice were then administered one of five treatments (group 1: U14 cells + DMSO; group 2: U14 cells + Remodelin; group 3: U14 cells + anti-PD-L1 antibody; group 4: U14 cells + NP1192; group 5: U14 cells + anti-PD-L1 antibody + NP1192). Each group of mice was assigned according to the principles of randomization and the blinding method. Tumors were measured every 2 days, and tumor volume was calculated via the following equation: volume = (width)^2 × length/2. Remodelin and NP1192 were injected into the peritumoral area every 2 days at a dose of 25 mg/kg, and the in vivo antimouse PD-L1 antibody (low endotoxin) was injected every 3 days at a dose of 2.5 mg/kg.
A lentiviral vector expressing firefly luciferase was transduced into the U14 cells. After puromycin selection and cell expansion, U14 cells with stable firefly luciferase expression were generated. C57BL/6J mice were randomly divided into the following 5 groups for further experiments: group 1, U14 cells + DMSO; group 2, U14 cells + Remodelin; group 3, U14 cells + anti-PD-L1 antibody; group 4, U14 cells + NP1192; and group 5, U14 cells + anti-PD-L1 antibody + NP1192. After tumor stabilization, the luciferase substrate was injected into the mice every 2 days, and fluorescence values were obtained via a Maestro in vivo imaging system.

As for `N#Cc1ccc(-c2csc(N(CCCCCCC(=O)N3CCN(c4cccc5c4C(=O)N(C4CCC(=O)NC4=O)C5=O)CC3)N=C3CCCC3)n2)cc1` (stereo not drawn) [NP1192], the tumor volume result (25 mg/kg every 2 days, compared to DMSO or Remodelin) is listed as “significantly reduced tumor volume”. Besides, the “weight loss or systemic toxicity” value (U14 xenograft mice, 25 mg/kg) is given as “did not cause significant weight loss or systemic toxicity”. For the same compound, for the setting “xenograft tumors after treatment for 1 week”, the “reduction in tumor lactate levels” value is “more than 40%”.
